From PubChem BioAssay (NCI)
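Exposure lasted 48 hours, with cells grown in 96-well plates and compounds tested at five concentrations. GI50 is the concentration that inhibits growth by half. At the TGI there is no net growth.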

How the values were obtained:
Test in all cases: inhibition of tumour cell growth, NCI panel, 48 h
MDA-MB-231 breast = test system: MDA-MB-231 breast
IGROV1 ovarian = test system: IGROV1 ovarian
NCI-H23 lung = test system: NCI-H23 lung
MDA-MB-435 = test system: MDA-MB-435
CCRF-CEM leukemia = test system: CCRF-CEM leukemia
OVCAR-5 ovarian = test system: OVCAR-5 ovarian
HS 578T breast = test system: HS 578T breast
ACHN renal = test system: ACHN renal
DU-145 prostate = test system: DU-145 prostate
SN12C renal = test system: SN12C renal
SK-MEL-28 melanoma = test system: SK-MEL-28 melanoma
HL-60(TB) leukemia = test system: HL-60(TB) leukemia
OVCAR-8 ovarian = test system: OVCAR-8 ovarian
MCF7 breast = test system: MCF7 breast
UACC-257 melanoma = test system: UACC-257 melanoma
RXF 393 renal = test system: RXF 393 renal
SF-268 CNS = test system: SF-268 CNS
RPMI-8226 leukemia = test system: RPMI-8226 leukemia
SK-OV-3 ovarian = test system: SK-OV-3 ovarian
HOP-92 NSCLC = test system: HOP-92 NSCLC
TK-10 renal = test system: TK-10 renal
PC-3 prostate = test system: PC-3 prostate
CAKI-1 renal = test system: CAKI-1 renal
MOLT-4 leukemia = test system: MOLT-4 leukemia
HOP-62 NSCLC = test system: HOP-62 NSCLC
UO-31 renal = test system: UO-31 renal
OVCAR-4 ovarian = test system: OVCAR-4 ovarian
SK-MEL-2 melanoma = test system: SK-MEL-2 melanoma
SNB-19 CNS = test system: SNB-19 CNS
OVCAR-3 ovarian = test system: OVCAR-3 ovarian
SNB-75 CNS = test system: SNB-75 CNS
HCC-2998 colon = test system: HCC-2998 colon
K-562 leukemia = test system: K-562 leukemia
U251 CNS = test system: U251 CNS
COLO 205 colon = test system: COLO 205 colon
LOX IMVI melanoma = test system: LOX IMVI melanoma
SK-MEL-5 melanoma = test system: SK-MEL-5 melanoma
MALME-3M melanoma = test system: MALME-3M melanoma
T-47D breast = test system: T-47D breast
NCI/ADR-RES ovarian = test system: NCI/ADR-RES ovarian
SR leukemia = test system: SR leukemia
KM12 colon = test system: KM12 colon
SW-620 colon = test system: SW-620 colon
A498 renal = test system: A498 renal
HT29 colon = test system: HT29 colon
SF-539 CNS = test system: SF-539 CNS
HCT-15 colon = test system: HCT-15 colon
M14 melanoma = test system: M14 melanoma
NCI-H522 lung = test system: NCI-H522 lung
SF-295 CNS = test system: SF-295 CNS
NCI-H226 lung = test system: NCI-H226 lung
A549 NSCLC = test system: A549 NSCLC
NCI-H460 lung = test system: NCI-H460 lung
786-0 renal = test system: 786-0 renal
UACC-62 melanoma = test system: UACC-62 melanoma
HCT-116 colon = test system: HCT-116 colon
BT-549 breast = test system: BT-549 breast
EKVX NSCLC = test system: EKVX NSCLC
MDA-N = test system: MDA-N

For `CNC(=O)c1c(NC(=O)c2ccc(C(C)(C)C)cc2)sc2c1CCC(=O)C2`, the GI50 (MDA-MB-231 breast) was 300 nM, the TGI (MDA-MB-231 breast) was 1130 nM and the GI50 (IGROV1 ovarian) was 373 nM. For the same molecule, the TGI (IGROV1 ovarian) was 1640 nM, the GI50 (NCI-H23 lung) was 266 nM and the TGI (NCI-H23 lung) was 1240 nM. It also gave a GI50 (MDA-MB-435) of 335 nM, a TGI (MDA-MB-435) of 1420 nM and a GI50 (CCRF-CEM leukemia) of 88.6 nM. For the same molecule, the TGI (CCRF-CEM leukemia) was greater than 20100 nM, the GI50 (OVCAR-5 ovarian) was 341 nM and the TGI (OVCAR-5 ovarian) was 1410 nM. It also gave a GI50 (HS 578T breast) of 380 nM, a TGI (HS 578T breast) of 3070 nM and a GI50 (ACHN renal) of 203 nM. It also gave a TGI (ACHN renal) of 922 nM, a GI50 (DU-145 prostate) of 1440 nM and a TGI (DU-145 prostate) of 3680 nM. For the same molecule, the GI50 (SN12C renal) was 333 nM, the TGI (SN12C renal) was 1400 nM and the GI50 (SK-MEL-28 melanoma) was 506 nM. It also gave a TGI (SK-MEL-28 melanoma) of 1870 nM, a GI50 (HL-60(TB) leukemia) of 261 nM and a TGI (HL-60(TB) leukemia) of 1580 nM. The GI50 (OVCAR-8 ovarian) was 292 nM, the TGI (OVCAR-8 ovarian) was 3190 nM and the GI50 (MCF7 breast) was 264 nM. It also gave a TGI (MCF7 breast) of 1330 nM, a GI50 (UACC-257 melanoma) of 824 nM and a TGI (UACC-257 melanoma) of 3490 nM. For the same molecule, the GI50 (RXF 393 renal) was 244 nM, the TGI (RXF 393 renal) was 1010 nM and the GI50 (SF-268 CNS) was 414 nM. The TGI (SF-268 CNS) was 1850 nM, the GI50 (RPMI-8226 leukemia) was 55.3 nM and the TGI (RPMI-8226 leukemia) was 511 nM. For the same molecule, the GI50 (SK-OV-3 ovarian) was 1400 nM, the TGI (SK-OV-3 ovarian) was 6170 nM and the GI50 (HOP-92 NSCLC) was 358 nM. The TGI (HOP-92 NSCLC) was 2030 nM, the GI50 (TK-10 renal) was 374 nM and the TGI (TK-10 renal) was 1970 nM. It also gave a GI50 (PC-3 prostate) of 79.7 nM, a TGI (PC-3 prostate) of 1350 nM and a GI50 (CAKI-1 renal) of 203 nM. It also gave a TGI (CAKI-1 renal) of 945 nM, a GI50 (MOLT-4 leukemia) of 314 nM and a TGI (MOLT-4 leukemia) of 2050 nM. For the same molecule, the GI50 (HOP-62 NSCLC) was 835 nM, the TGI (HOP-62 NSCLC) was 3320 nM and the GI50 (UO-31 renal) was 214 nM. The TGI (UO-31 renal) was 819 nM, the GI50 (OVCAR-4 ovarian) was 195 nM and the TGI (OVCAR-4 ovarian) was 991 nM. It also gave a GI50 (SK-MEL-2 melanoma) of 508 nM, a TGI (SK-MEL-2 melanoma) of 1960 nM and a GI50 (SNB-19 CNS) of 321 nM. The TGI (SNB-19 CNS) was 1390 nM, the GI50 (OVCAR-3 ovarian) was 444 nM and the TGI (OVCAR-3 ovarian) was 1600 nM. The GI50 (SNB-75 CNS) was 343 nM, the TGI (SNB-75 CNS) was 1440 nM and the GI50 (HCC-2998 colon) was 581 nM. It also gave a TGI (HCC-2998 colon) of 2040 nM, a GI50 (K-562 leukemia) of 65.9 nM and a TGI (K-562 leukemia) greater than 100000 nM. It also gave a GI50 (U251 CNS) of 143 nM, a TGI (U251 CNS) of 1450 nM and a GI50 (COLO 205 colon) of 200 nM. It also gave a TGI (COLO 205 colon) of 462 nM, a GI50 (LOX IMVI melanoma) of 190 nM and a TGI (LOX IMVI melanoma) of 1310 nM. The GI50 (SK-MEL-5 melanoma) was 349 nM, the TGI (SK-MEL-5 melanoma) was 1330 nM and the GI50 (MALME-3M melanoma) was 345 nM. For the same molecule, the TGI (MALME-3M melanoma) was 1590 nM, the GI50 (T-47D breast) was 184 nM and the TGI (T-47D breast) was 1530 nM. For the same molecule, the GI50 (NCI/ADR-RES ovarian) was 313 nM, the TGI (NCI/ADR-RES ovarian) was 1290 nM and the GI50 (SR leukemia) was 107 nM. It also gave a GI50 (KM12 colon) of 313 nM, a TGI (KM12 colon) of 1340 nM and a GI50 (SW-620 colon) of 98.4 nM. It also gave a TGI (SW-620 colon) of 1270 nM, a GI50 (A498 renal) of 647 nM and a TGI (A498 renal) of 3620 nM. For the same molecule, the GI50 (HT29 colon) was 263 nM, the TGI (HT29 colon) was 1560 nM and the GI50 (SF-539 CNS) was 244 nM. For the same molecule, the TGI (SF-539 CNS) was 1220 nM, the GI50 (HCT-15 colon) was 120 nM and the TGI (HCT-15 colon) was 1270 nM. It also gave a GI50 (M14 melanoma) of 346 nM, a TGI (M14 melanoma) of 1790 nM and a GI50 (NCI-H522 lung) of 197 nM. It also gave a TGI (NCI-H522 lung) of 1410 nM, a GI50 (SF-295 CNS) of 334 nM and a TGI (SF-295 CNS) of 1350 nM. For the same molecule, the GI50 (NCI-H226 lung) was 558 nM, the TGI (NCI-H226 lung) was 1990 nM and the GI50 (A549 NSCLC) was 300 nM. For the same molecule, the TGI (A549 NSCLC) was 1600 nM, the GI50 (NCI-H460 lung) was 352 nM and the TGI (NCI-H460 lung) was 1470 nM. It also gave a GI50 (786-0 renal) of 434 nM, a TGI (786-0 renal) of 1830 nM and a GI50 (UACC-62 melanoma) of 262 nM. The TGI (UACC-62 melanoma) was 1280 nM, the GI50 (HCT-116 colon) was 97.1 nM and the TGI (HCT-116 colon) was 1400 nM. The GI50 (BT-549 breast) was 352 nM, the TGI (BT-549 breast) was 1680 nM and the GI50 (EKVX NSCLC) was 381 nM. It also gave a TGI (EKVX NSCLC) of 1700 nM.
`O=S(=O)(O)c1cc(O)c(N=Nc2ccc(O)cc2O)c2ccccc12` gave a TGI (MDA-MB-231 breast) greater than 100000 nM, a TGI (IGROV1 ovarian) greater than 100000 nM and a TGI (MDA-MB-435) greater than 100000 nM. For the same molecule, the TGI (CCRF-CEM leukemia) was greater than 100000 nM, the TGI (OVCAR-5 ovarian) was greater than 100000 nM and the TGI (HS 578T breast) was greater than 100000 nM. The TGI (ACHN renal) was greater than 100000 nM, the TGI (SN12C renal) was greater than 100000 nM and the TGI (SK-MEL-28 melanoma) was greater than 100000 nM. For the same molecule, the TGI (HL-60(TB) leukemia) was greater than 100000 nM, the TGI (OVCAR-8 ovarian) was greater than 100000 nM and the TGI (UACC-257 melanoma) was greater than 100000 nM. For the same molecule, the TGI (RXF 393 renal) was greater than 100000 nM, the TGI (SF-268 CNS) was greater than 100000 nM and the TGI (RPMI-8226 leukemia) was greater than 100000 nM. The TGI (SK-OV-3 ovarian) was greater than 100000 nM, the TGI (HOP-92 NSCLC) was greater than 100000 nM and the TGI (TK-10 renal) was greater than 100000 nM. It also gave a TGI (PC-3 prostate) greater than 100000 nM, a TGI (CAKI-1 renal) greater than 100000 nM and a TGI (MOLT-4 leukemia) greater than 100000 nM. The TGI (HOP-62 NSCLC) was greater than 100000 nM, the TGI (OVCAR-4 ovarian) was greater than 100000 nM and the TGI (SK-MEL-2 melanoma) was greater than 100000 nM. It also gave a TGI (SNB-19 CNS) greater than 100000 nM, a TGI (OVCAR-3 ovarian) greater than 100000 nM and a TGI (SNB-75 CNS) greater than 100000 nM. For the same molecule, the TGI (K-562 leukemia) was greater than 100000 nM, the TGI (U251 CNS) was greater than 100000 nM and the TGI (COLO 205 colon) was greater than 100000 nM. The TGI (LOX IMVI melanoma) was greater than 100000 nM, the TGI (SK-MEL-5 melanoma) was greater than 100000 nM and the TGI (MALME-3M melanoma) was greater than 100000 nM. The TGI (NCI/ADR-RES ovarian) was greater than 100000 nM, the TGI (SR leukemia) was greater than 100000 nM and the TGI (KM12 colon) was greater than 100000 nM. The TGI (SW-620 colon) was greater than 100000 nM, the TGI (HT29 colon) was greater than 100000 nM and the TGI (MDA-N) was greater than 100000 nM. The TGI (HCT-15 colon) was greater than 100000 nM, the TGI (M14 melanoma) was greater than 100000 nM and the TGI (NCI-H522 lung) was 95400 nM. The TGI (SF-295 CNS) was greater than 100000 nM, the TGI (NCI-H226 lung) was 48500 nM and the TGI (A549 NSCLC) was greater than 100000 nM. For the same molecule, the TGI (786-0 renal) was greater than 100000 nM, the TGI (HCT-116 colon) was greater than 100000 nM and the TGI (EKVX NSCLC) was greater than 100000 nM.
